Key:
MCF7 [1] = assay: Antiproliferative activity against human MCF7 cells assessed as reduction in cell viability measured after 48 hrs by MTT assay; assay type: functional, cell-based
A549 = assay: Antiproliferative activity against human A549 cells assessed as reduction in cell viability measured after 48 hrs by MTT assay; assay type: functional, cell-based
HeLa = assay: Antiproliferative activity against human HeLa cells assessed as reduction in cell viability measured after 48 hrs by MTT assay; assay type: functional, cell-based
B16-F10 [2] = assay: Antiproliferative activity against mouse B16-F10 cells assessed as reduction in cell viability measured after 48 hrs by MTT assay; assay type: functional, cell-based
MCF7 [3] = assay: Inhibition of colony formation in human MCF7 cells assessed as decrease in colonies measured after 24 hrs by photographic imaging analysis; assay type: functional, cell-based; settings: dose 0.05-5 µM
A2780/Taxol [4] = assay: Antiproliferative activity against human A2780T cells assessed as reduction in cell viability measured after 48 hrs by MTT assay; assay type: functional, cell-based
A2780S = assay: Antiproliferative activity against human A2780S cells assessed as reduction in cell viability measured after 48 hrs by MTT assay; assay type: functional, cell-based
[5] = Resistance index, ratio of IC50 for antiproliferative activity against human A2780T cells assessed as reduction in cell viability measured after 48 hrs by MTT assay to IC50 for antiproliferative activity against human A2780S cells assessed as reduction in cell viability measured after 48 hrs by MTT assay; assay type: functional
A2780/Taxol [6] = assay: Inhibition of colony formation in human A2780T cells assessed as decrease in colonies measured after 24 hrs by photographic imaging analysis; assay type: functional, cell-based; settings: dose 10-100 nM
[7] = (§1) Inhibition of pig brain tubulin polymerization by spectrophotometric method; assay type: tissue-based, Sus scrofa
Sus scrofa = species: Sus scrofa; assay: as §1; assay type: tissue-based
[8] = Binding affinity to immobilized pig brain tubulin assessed as equilibrium dissociation constant by SPR assay; assay type: tissue-based, Sus scrofa
B16-F10 [9] = assay: Disruption of microtubule network in mouse […] cells measured after 6 hrs by DAPI staining based immunofluorescence microscopic assay; assay type: cell-based; settings: dose 10-40 nM
MCF7 [10] = assay: Cell cycle analysis in human MCF7 cells assessed as accumulation at G1 phase at 5 nM measured after 48 hrs by RnaseA/propidium iodide staining based flow cytometry (reference value: 53.68 %); assay type: functional
MCF7 [11] = assay: Cell cycle analysis in human MCF7 cells assessed as accumulation at S phase at 5 nM measured after 48 hrs by RnaseA/propidium iodide staining based flow cytometry (reference value: 27.46 %); assay type: functional
MCF7 [12] = assay: Cell cycle analysis in human MCF7 cells assessed as accumulation at G2 phase at 5 nM measured after 48 hrs by RnaseA/propidium iodide staining based flow cytometry (reference value: 17.03 %); assay type: functional
MCF7 [13] = assay: Cell cycle analysis in human MCF7 cells assessed as accumulation at G1 phase at 10 nM measured after 48 hrs by RnaseA/propidium iodide staining based flow cytometry (reference value: 53.68 %); assay type: functional
MCF7 [14] = assay: Cell cycle analysis in human MCF7 cells assessed as accumulation at S phase at 10 nM measured after 48 hrs by RnaseA/propidium iodide staining based flow cytometry (reference value: 27.46 %); assay type: functional
MCF7 [15] = assay: Cell cycle analysis in human MCF7 cells assessed as accumulation at G2 phase at 10 nM measured after 48 hrs by RnaseA/propidium iodide staining based flow cytometry (reference value: 17.03 %); assay type: functional
MCF7 [16] = assay: Cell cycle analysis in human MCF7 cells assessed as accumulation at G1 phase at 20 nM measured after 48 hrs by RnaseA/propidium iodide staining based flow cytometry (reference value: 53.68 %); assay type: functional
MCF7 [17] = assay: Cell cycle analysis in human MCF7 cells assessed as accumulation at S phase at 20 nM measured after 48 hrs by RnaseA/propidium iodide staining based flow cytometry (reference value: 27.46 %); assay type: functional
MCF7 [18] = assay: Cell cycle analysis in human MCF7 cells assessed as accumulation at G2 phase at 20 nM measured after 48 hrs by RnaseA/propidium iodide staining based flow cytometry (reference value: 17.03 %); assay type: functional
MCF7 [19] = assay: Induction of apoptosis in human MCF7 cells assessed as live cells at 5 nM measured after 48 hrs by annexinV-FITC/propidium iodide staining based flow cytometry (reference value: 88.5 %); assay type: functional
MCF7 [20] = assay: Induction of apoptosis in human MCF7 cells assessed as early apoptotic cells at 5 nM measured after 48 hrs by annexinV-FITC/propidium iodide staining based flow cytometry (reference value: 1.89 %); assay type: functional
MCF7 [21] = assay: Induction of apoptosis in human MCF7 cells assessed as late apoptotic cells at 5 nM measured after 48 hrs by annexinV-FITC/propidium iodide staining based flow cytometry (reference value: 5.99 %); assay type: functional
MCF7 [22] = assay: Induction of apoptosis in human MCF7 cells assessed as necrotic cells at 5 nM measured after 48 hrs by annexinV-FITC/propidium iodide staining based flow cytometry (reference value: 2.62 %); assay type: functional
MCF7 [23] = assay: Induction of apoptosis in human MCF7 cells assessed as live cells at 10 nM measured after 48 hrs by annexinV-FITC/propidium iodide staining based flow cytometry (reference value: 88.5 %); assay type: functional
MCF7 [24] = assay: Induction of apoptosis in human MCF7 cells assessed as early apoptotic cells at 10 nM measured after 48 hrs by annexinV-FITC/propidium iodide staining based flow cytometry (reference value: 1.89 %); assay type: functional
MCF7 [25] = assay: Induction of apoptosis in human MCF7 cells assessed as late apoptotic cells at 10 nM measured after 48 hrs by annexinV-FITC/propidium iodide staining based flow cytometry (reference value: 5.99 %); assay type: functional
MCF7 [26] = assay: Induction of apoptosis in human MCF7 cells assessed as necrotic cells at 10 nM measured after 48 hrs by annexinV-FITC/propidium iodide staining based flow cytometry (reference value: 2.62 %); assay type: functional
MCF7 [27] = assay: Induction of apoptosis in human MCF7 cells assessed as live cells at 20 nM measured after 48 hrs by annexinV-FITC/propidium iodide staining based flow cytometry (reference value: 88.5 %); assay type: functional
MCF7 [28] = assay: Induction of apoptosis in human MCF7 cells assessed as early apoptotic cells at 20 nM measured after 48 hrs by annexinV-FITC/propidium iodide staining based flow cytometry (reference value: 1.89 %); assay type: functional
MCF7 [29] = assay: Induction of apoptosis in human MCF7 cells assessed as late apoptotic cells at 20 nM measured after 48 hrs by annexinV-FITC/propidium iodide staining based flow cytometry (reference value: 5.99 %); assay type: functional
MCF7 [30] = assay: Induction of apoptosis in human MCF7 cells assessed as necrotic cells at 20 nM measured after 48 hrs by annexinV-FITC/propidium iodide staining based flow cytometry (reference value: 2.62 %); assay type: functional
B16-F10 [31] = assay: Antimigratory activity in mouse B16-F10 cells assessed as inhibition of cell migration by measuring wound closure at 5 nM measured after 24 hrs (reference value: 51.92 +/- 2.02 %); assay type: functional; set-up: scale not given: the % may be the effect or the level left
B16-F10 [32] = assay: Antimigratory activity in mouse B16-F10 cells assessed as inhibition of cell migration by measuring wound closure at 10 nM measured after 24 hrs (reference value: 51.92 +/- 2.02 %); assay type: functional; set-up: scale not given: the % may be the effect or the level left
B16-F10 [33] = assay: Antimigratory activity in mouse B16-F10 cells assessed as inhibition of cell migration by measuring wound closure at 20 nM measured after 24 hrs (reference value: 51.92 +/- 2.02 %); assay type: functional; set-up: scale not given: the % may be the effect or the level left
B16-F10 [34] = assay: Antimigratory activity in mouse B16-F10 cells assessed as inhibition of cell migration measured after 24 hrs; assay type: functional, cell-based; settings: dose 5-20 nM
B16-F10 [35] = assay: Antitumor activity against mouse B16-F10 cells inoculated in BALB/c mouse assessed as tumor growth inhibition at 15 mg/kg, ip qd for 14 days by caliper method relative to control; assay type: functional; settings: 336 h, time 14 day, read-out: TGI
B16-F10 [36] = assay: Antitumor activity against mouse B16-F10 cells inoculated in BALB/c mouse assessed as tumor growth inhibition at 30 mg/kg, ip qd for 14 days by caliper method relative to control; assay type: functional; settings: 336 h, time 14 day, read-out: TGI
[37] = Acute toxicity in BALB/c mouse inoculated with mouse B16-F10 cells assessed as effect on body weight at 15 mg/kg, ip qd for 14 days; assay type: organism-based; settings: in vivo, 336 h, time 14 day
[38] = Acute toxicity in BALB/c mouse inoculated with mouse B16-F10 cells assessed as effect on liver at 15 to 30 mg/kg, ip qd for 14 days by hematoxylin and eosin staining based analysis; assay type: organism-based; settings: in vivo, 336 h, dose 15-30 mg/kg, time 14 day
[39] = Acute toxicity in BALB/c mouse inoculated with mouse B16-F10 cells assessed as effect on kidney at 15 to 30 mg/kg, ip qd for 14 days by hematoxylin and eosin staining based analysis; assay type: organism-based; settings: in vivo, 336 h, dose 15-30 mg/kg, time 14 day

SMILES: COc1cc(-c2cccc3[nH]c(-c4cccc5c4ccn5C)nc23)cc(OC)c1OC
- Activity (MCF7 [1]): Dose-Dependent Effect
- IC50 (MCF7 [1]; MCF7, 48 h): 18 nM
- Activity (A549): Dose-Dependent Effect
- IC50 (A549; A549, 48 h): 85 nM
- Activity (HeLa): Dose-Dependent Effect
- IC50 (HeLa): 68 nM
- Activity (B16-F10 [2]): Dose-Dependent Effect
- IC50 (B16-F10 [2]; B16-F10, 48 h): 29 nM
- inhibition (MCF7 [3]): Dose-Dependent Effect
- IC50 (A2780/Taxol [4]): 9.7 nM
- IC50 (A2780S): 6.2 nM
- Ratio IC50 [5]: 1.6
- inhibition (A2780/Taxol [6]): Dose-Dependent Effect
- IC50 [7]: 2520 nM
- inhibition (Sus scrofa): Dose-Dependent Effect
- Kd [8]: 12700 nM
- Activity (B16-F10 [9]): Dose-Dependent Effect
- Activity (MCF7 [10]): 62.06%
- Activity (MCF7 [11]): 23.09%
- Activity (MCF7 [12]): 13.41%
- Activity (MCF7 [13]): 13.1%
- Activity (MCF7 [14]): 22.93%
- Activity (MCF7 [15]): 62.8%
- Activity (MCF7 [16]): 17.16%
- Activity (MCF7 [17]): 19.63%
- Activity (MCF7 [18]): 62.16%
- Activity (MCF7 [19]): 83.7%
- Activity (MCF7 [20]): 2.98%
- Activity (MCF7 [21]): 9.04%
- Activity (MCF7 [22]): 4.26%
- Activity (MCF7 [23]): 84.4%
- Activity (MCF7 [24]): 5.12%
- Activity (MCF7 [25]): 28.4%
- Activity (MCF7 [26]): 2.12%
- Activity (MCF7 [27]): 58.9%
- Activity (MCF7 [28]): 4.69%
- Activity (MCF7 [29]): 34.3%
- Activity (MCF7 [30]): 2.14%
- Activity (B16-F10 [31]): 29.42%
- Activity (B16-F10 [32]): 15.68%
- Activity (B16-F10 [33]): 6.6%
- inhibition (B16-F10 [34]): Dose-Dependent Effect
- inhibition in vivo at 15 mg/kg (B16-F10 [35]): 78.7%
- inhibition in vivo at 30 mg/kg (B16-F10 [36]): 84.3%
- Activity [37]: Non-Toxic
- Activity [38]: Non-Toxic
- Activity [39]: Non-Toxic

Source: ChEMBL document CHEMBL4808173, “Discovery of Novel Benzimidazole and Indazole Analogues as Tubulin Polymerization Inhibitors with Potent Anticancer Activities” (J Med Chem, 2021)
